Measured values from BindingDB's records for patent WO2023288264 (Blueprint Medicines, 2023).
“And” between values parts separate entries of the source, which are not always exact repeats. Equal values may be shown once.

Each molecule was assayed against Mitogen-activated protein kinase kinase kinase kinase 1 (Homo sapiens, UniProt Q92918) (assay: MAP4K1 Biochemical Enzymatic Activity).
Sequence of Mitogen-activated protein kinase kinase kinase kinase 1 (Q92918 whole entry): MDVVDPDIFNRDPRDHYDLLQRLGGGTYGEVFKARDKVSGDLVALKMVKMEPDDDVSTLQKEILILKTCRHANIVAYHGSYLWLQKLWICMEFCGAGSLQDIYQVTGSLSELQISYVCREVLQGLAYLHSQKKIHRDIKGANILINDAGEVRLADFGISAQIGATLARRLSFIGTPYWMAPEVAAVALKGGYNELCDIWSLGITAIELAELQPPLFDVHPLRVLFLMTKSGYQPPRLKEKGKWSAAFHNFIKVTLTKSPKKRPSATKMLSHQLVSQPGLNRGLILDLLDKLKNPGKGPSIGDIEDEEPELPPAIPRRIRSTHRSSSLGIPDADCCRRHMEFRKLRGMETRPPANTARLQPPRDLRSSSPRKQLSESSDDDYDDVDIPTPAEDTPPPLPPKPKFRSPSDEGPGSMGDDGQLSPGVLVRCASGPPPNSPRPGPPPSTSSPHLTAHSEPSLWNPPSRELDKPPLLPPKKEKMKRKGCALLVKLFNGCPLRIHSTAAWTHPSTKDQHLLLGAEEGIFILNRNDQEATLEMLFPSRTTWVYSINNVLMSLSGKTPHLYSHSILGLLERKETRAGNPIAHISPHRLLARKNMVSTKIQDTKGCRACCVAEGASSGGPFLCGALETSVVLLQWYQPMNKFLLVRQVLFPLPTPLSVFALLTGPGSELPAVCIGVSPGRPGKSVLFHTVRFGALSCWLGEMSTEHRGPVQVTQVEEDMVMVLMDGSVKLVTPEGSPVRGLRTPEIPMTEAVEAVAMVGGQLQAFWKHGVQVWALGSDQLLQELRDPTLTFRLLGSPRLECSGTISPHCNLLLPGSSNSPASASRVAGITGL
Method: Inhibitors were dissolved in 100% DMSO at a stock concentration of 10 mM. A 100X, 10-point, 4-fold serial dilution of each inhibitor was created in 100% DMSO either manually or on a Hamilton STAR liquid handler, starting at a relevant concentration, usually 1 mM. A volume of 0.130 µL of each concentration was transferred to the relevant wells of a 384-well plate (Greiner 781 201) in duplicate using a TTPLabtech Mosquito nano-litre dispenser. Using a Multidrop Combi, the remaining constituents of the kinase reaction were added to the 130 nL of dosed compound as follows (see table below for final reaction details):Enzyme activity assays at the APPKM for ATP or 1 mM ATP: In each well of a 384-well plate, 0.1 - 15 nM of untreated enzyme was incubated in a total of 13 µL of buffer (100 mM HEPES pH 7.5, 0.015% Brij 35, 10 mM MgCl2, 1mM DTT) with 1.5 µM fluorescent peptide and 20 - 1000 µM ATP, at 25 °C, for 60 - 180 minutes in the presence or absence of a dosed concentration series of compound (1% DMSO final concentration). The kinase reactions were stopped by the addition of 70 µl of Stop buffer (100 mM HEPES pH 7.5, 0.015% Brij 35, 35 mM EDTA and 0.2% of Coating Reagent 3 (Caliper Lifesciences)). The plates were read on a Caliper EZReader 2 as described above.
`COc1ncc([C@@H](C)O)c2cc(Nc3ccnc(C(C)(C)F)n3)ncc12` [WO2023288264, Compound 1] showed an IC50 of 121 nM. In the case of `CC[C@@](C)(O)c1cnc(NC2CC2)c2cnc(Nc3ccc4c(n3)[C@@H](C)[C@H](C)OC4=O)cc12` [WO2023288264, Compound 21], the IC50 is reported as 1.98 nM. In the case of `CCOc1ncc([C@](C)(O)CC)c2cc(Nc3ccc4c(n3)[C@@H](C)C(C)(C)OC4=O)ncc12` [WO2023288264, Compound 23], the IC50 is reported as 3.34 nM. With `COc1ncc([C@H](C)O)c2cc(Nc3ccnc(C(C)(C)F)n3)ncc12` [WO2023288264, Compound 2] the IC50 was 64 nM. For `CCOc1ncc([C@@](C)(O)CC)c2cc(Nc3ccc4c(n3)[C@@H](C)C(C)(C)OC4=O)ncc12` [WO2023288264, Compound 24], the IC50 was 0.39 nM. For `COc1ncc([C@](C)(O)C(F)F)c2cc(Nc3ccnc(C(C)(C)F)n3)ncc12` [WO2023288264, Compound 12], the IC50 was 47 nM. Molecule `CC[C@](C)(O)c1cnc(NC2CC2)c2cnc(Nc3ccc4c(n3)[C@@H](C)[C@H](C)OC4=O)cc12` [WO2023288264, Compound 20] has an IC50 of 3.48 nM. In the case of `COc1ncc(C(C)(C)O)c2cc(Nc3ccnc(N4CCCC4)n3)ncc12` [WO2023288264, Compound 9], the IC50 is reported as 1.63 nM. With `COC[C@@H](O)c1cnc(OC)c2cnc(Nc3ccc4c(n3)[C@@H](C)C(C)(C)OC4=O)cc12` [WO2023288264, Compound 18] the IC50 was 1.65 nM. With `CC[C@@](C)(O)c1cnc(OC)c2cnc(Nc3ccc4c(n3)[C@@H](C)C(C)(C)OC4=O)cc12` [WO2023288264, Compound 17] the IC50 was 0.3 nM. In the case of `CC[C@@H](O)c1cnc(OC)c2cnc(Nc3ccc4c(n3)[C@@H](C)C(C)(C)OC4=O)cc12` [WO2023288264, Compound 14], the IC50 is reported as 0.25 nM and 0.61 nM. In the case of `C[C@@H]1OC(=O)c2ccc(Nc3cc4c([C@@](C)(O)C5CC5)cnc(OC5CC5)c4cn3)nc2[C@H]1C` [WO2023288264, Compound 25], the IC50 is reported as 27 nM. `COc1ncc([C@@](C)(O)C(F)F)c2cc(Nc3ccnc(C(C)(C)F)n3)ncc12` [WO2023288264, Compound 11] was tested, and the IC50 was 15 nM. In the case of `COC[C@H](O)c1cnc(OC)c2cnc(Nc3ccc4c(n3)[C@@H](C)C(C)(C)OC4=O)cc12` [WO2023288264, Compound 19], the IC50 is reported as 14 nM. For `CC[C@H](O)c1cnc(OC)c2cnc(Nc3ccc4c(n3)[C@@H](C)C(C)(C)OC4=O)cc12` [WO2023288264, Compound 15], the IC50 was 3.06 nM.
